# Experimental data from patent US9840513B2 (AbbVie S.à.r.l., priority 2015, dated 2017).
# Molecular target: T1, F508delCFTR cell surface expression in CFBE41o-F508delCFTR-HRP cells (Homo sapiens, UniProt P13569, DEL508-508)
# T1 construct: fused on or other part: Horseradish peroxidase (HRP) reporter inserted in the fourth exofacial (extracellular) loop of CFTR; expression is doxycycline-inducible
# Test: Cell Surface Expression-Horse Radish Peroxidase (CSE-HRP) Assay
# Format: cell-based
# Settings: for EC50: CFBE41o-F508delCFTR-HRP cells, 18-24 hours at 33° C., 8-point curve, highest concentration 20 μM; for Maximum % activity (%): maximum at any tested concentration, normalized to on-plate positive control (3 μM)
# In short: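 CFBE41o- cells with HRP-tagged F508delCFTR, expression induced by 0.5 μg/mL doxycycline for 72 h at 37 °C, then compound for 18-24 h at 33 °C (8-point, 3-fold, top 20 μM). Surface HRP measured by luminol luminescence; % activity normalised to 3 μM positive-control corrector; EC50 from variable-slope sigmoidal fit, three replicate plates.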
# T1 sequence (P13569 with tags, fused parts or gaps DEL508-508 limits assumed): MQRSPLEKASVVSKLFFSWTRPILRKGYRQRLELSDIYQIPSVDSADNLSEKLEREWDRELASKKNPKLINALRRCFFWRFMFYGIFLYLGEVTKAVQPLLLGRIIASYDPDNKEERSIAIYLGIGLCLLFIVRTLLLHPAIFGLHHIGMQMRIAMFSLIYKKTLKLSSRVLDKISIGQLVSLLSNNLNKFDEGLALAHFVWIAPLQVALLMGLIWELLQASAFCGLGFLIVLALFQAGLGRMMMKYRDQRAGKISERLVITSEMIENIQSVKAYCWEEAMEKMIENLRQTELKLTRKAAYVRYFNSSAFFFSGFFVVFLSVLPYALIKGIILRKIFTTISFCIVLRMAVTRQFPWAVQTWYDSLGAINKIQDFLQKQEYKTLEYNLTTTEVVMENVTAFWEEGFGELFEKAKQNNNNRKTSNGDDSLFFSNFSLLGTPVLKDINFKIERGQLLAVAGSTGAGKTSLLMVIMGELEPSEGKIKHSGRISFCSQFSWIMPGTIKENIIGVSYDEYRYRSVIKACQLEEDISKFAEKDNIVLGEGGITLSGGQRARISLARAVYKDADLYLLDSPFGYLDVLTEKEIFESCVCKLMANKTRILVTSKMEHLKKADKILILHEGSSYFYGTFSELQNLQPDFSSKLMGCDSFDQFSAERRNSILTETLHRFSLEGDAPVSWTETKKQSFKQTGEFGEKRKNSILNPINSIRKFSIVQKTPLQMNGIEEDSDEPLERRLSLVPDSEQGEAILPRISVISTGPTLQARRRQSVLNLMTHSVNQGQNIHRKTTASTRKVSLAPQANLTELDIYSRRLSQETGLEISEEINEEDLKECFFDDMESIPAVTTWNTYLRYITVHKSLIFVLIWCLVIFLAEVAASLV
# T1 sequence (P13569 919-1480 limits assumed, stated change not applied): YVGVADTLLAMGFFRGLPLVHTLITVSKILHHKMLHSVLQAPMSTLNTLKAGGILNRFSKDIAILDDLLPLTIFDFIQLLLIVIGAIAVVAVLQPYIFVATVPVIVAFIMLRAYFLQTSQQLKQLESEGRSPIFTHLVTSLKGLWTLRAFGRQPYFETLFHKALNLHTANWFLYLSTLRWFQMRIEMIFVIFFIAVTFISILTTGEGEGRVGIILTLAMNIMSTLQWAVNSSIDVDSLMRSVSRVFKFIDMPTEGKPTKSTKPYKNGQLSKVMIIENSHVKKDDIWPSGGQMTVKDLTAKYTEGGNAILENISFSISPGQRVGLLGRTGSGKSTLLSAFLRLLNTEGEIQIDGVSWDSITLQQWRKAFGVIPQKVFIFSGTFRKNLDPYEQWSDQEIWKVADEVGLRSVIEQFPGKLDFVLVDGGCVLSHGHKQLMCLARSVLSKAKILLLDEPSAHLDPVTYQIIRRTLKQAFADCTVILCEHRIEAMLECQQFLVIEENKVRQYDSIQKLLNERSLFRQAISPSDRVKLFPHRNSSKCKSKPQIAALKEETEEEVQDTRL
Compound,EC50 [nM],Maximum % activity (%)
"Cc1cc(NC(=O)[C@@]2(C)COc3cc4c(cc32)OC(F)(F)O4)nc(-c2cccc(C(=O)O)c2)c1 [Example 103, 3-(6-{[(7R)-2,2-difluoro-7-methyl-6,7-dihydro-2H-furo[2,3-f][1,3]benzodioxole-7-carbonyl]amino}-4-methylpyridin-2-yl)benzoic acid]",1720,170
"C[C@]1(C(=O)Nc2cc(Br)cn(C[C@@H](O)CO)c2=O)COc2cc3c(cc21)OC(F)(F)O3 [Example 98, (7R)—N-{5-bromo-1-[(2R)-2,3-dihydroxypropyl]-2-oxo-1,2-dihydropyridin-3-yl}-2,2-difluoro-7-methyl-6,7-dihydro-2H-furo[2,3-f][1,3]benzodioxole-7-carboxamide]",1140,143
"Cc1ccc(NC(=O)[C@@]2(C)COc3cc4c(cc32)OC(F)(F)O4)nc1-c1ccc(C(=O)NS(C)(=O)=O)cc1 [Example 142, (7R)-2,2-difluoro-N-(6-{4-[(methanesulfonyl)carbamoyl]phenyl}-5-methylpyridin-2-yl)-7-methyl-6,7-dihydro-2H-furo[2,3-f][1,3]benzodioxole-7-carboxamide]",2500,180
"COC(=O)c1cccc(-n2nc(C3CC3)cc(NC(=O)[C@@]3(C)COc4cc5c(cc43)OC(F)(F)O5)c2=O)c1 [Example 28, methyl 3-[3-cyclopropyl-5-{[(7R)-2,2-difluoro-7-methyl-6,7-dihydro-2H-furo[2,3-f][1,3]benzodioxole-7-carbonyl]amino}-6-oxopyridazin-1(6H)-yl]benzoate]",1420,112
"COc1ccc2c(c1)O[C@@H](c1cccc(C(=O)O)c1)C[C@H]2NC(=O)[C@@]1(C)CCc2cc3c(cc21)OC(F)(F)O3 (single isomer, unassigned) [Example 57]",1770,99
"Cc1ccc(-c2cccc(C(=O)O)c2)nc1NC(=O)[C@@]1(C)COc2cc3c(cc21)OC(F)(F)O3 [Example 84, 3-(6-{[(7R)-2,2-difluoro-7-methyl-6,7-dihydro-2H-furo[2,3-f][1,3]benzodioxole-7-carbonyl]amino}-5-methylpyridin-2-yl)benzoic acid]",7510,46
"CC1(C)OC[C@H](CN2CCC([C@H]3C[C@@H](NC(=O)[C@@]4(C)COc5cc6c(cc54)OC(F)(F)O6)c4ccc(OC(F)(F)F)cc4O3)CC2)O1 [Example 247, (7R)—N-[(2R,4R)-2-(1-{[(4S)-2,2-dimethyl-1,3-dioxolan-4-yl]methyl}piperidin-4-yl)-7-(trifluoromethoxy)-3,4-dihydro-2H-1-benzopyran-4-yl]-2,2-difluoro-7-methyl-6,7-dihydro-2H-furo[2,3-f][1,3]benzodioxole-7-carboxamide]",1180,181
"CC(C)(CO)[C@H]1Cc2cc(NC(=O)[C@@]3(C)COc4cc5c(cc43)OC(F)(F)O5)c(F)cc2N1C[C@@H](O)CO (single isomer, unassigned) [Example 140]",1300,49
"COC(=O)C1CCN(c2cccc(NC(=O)C3(C)COc4cc5c(cc43)OC(F)(F)O5)n2)CC1 (centres unmarked) [Example 70, methyl 1-{6-[(2,2-difluoro-7-methyl-6,7-dihydro-2H-furo[2,3-f][1,3]benzodioxole-7-carbonyl)amino]pyridin-2-yl}piperidine-4-carboxylate]",1300,116
"C[C@]1(C(=O)N[C@@H]2C[C@H](C3CCNCC3)Oc3cc(OC(F)(F)F)ccc32)COc2cc3c(cc21)OC(F)(F)O3 [Example 182, (7R)-2,2-difluoro-7-methyl-N-[(2R,4R)-2-(piperidin-4-yl)-7-(trifluoromethoxy)-3,4-dihydro-2H-1-benzopyran-4-yl]-6,7-dihydro-2H-furo[2,3-f][1,3]benzodioxole-7-carboxamide]",1680,195
"COc1ccc2c(c1)O[C@@H](Cn1ncccc1=O)C[C@H]2NC(=O)[C@@]1(C)COc2cc3c(cc21)OC(F)(F)O3 [Example 285, (7R)-2,2-difluoro-N-{(2R,4R)-7-methoxy-2-[(6-oxopyridazin-1(6H)-yl)methyl]-3,4-dihydro-2H-1-benzopyran-4-yl}-7-methyl-6,7-dihydro-2H-furo[2,3-f][1,3]benzodioxole-7-carboxamide]",1130,54

# These reach a lower EC50. Values come first.
EC50 [nM],Maximum % activity (%),Compound
210,132,"COC(=O)c1cccc(-n2nc(C3CC3)cc(NC(=O)C3(C)COc4cc5c(cc43)OC(F)(F)O5)c2=O)c1 (centres unmarked) [Example 40, methyl 3-{3-cyclopropyl-5-[(2,2-difluoro-7-methyl-6,7-dihydro-2H-furo[2,3-f][1,3]benzodioxole-7-carbonyl)amino]-6-oxopyridazin-1(6H)-yl}benzoate]"
850,99,"COc1ccc2c(c1)O[C@@H](COC[C@H](O)CO)C[C@H]2NC(=O)[C@@]1(C)COc2cc3c(cc21)OC(F)(F)O3 [Example 274, (7R)—N-[(2R,4R)-2-{[(2R)-2,3-dihydroxypropoxy]methyl}-7-methoxy-3,4-dihydro-2H-1-benzopyran-4-yl]-2,2-difluoro-7-methyl-6,7-dihydro-2H-furo[2,3-f][1,3]benzodioxole-7-carboxamide]"
640,156,"C[C@]1(C(=O)N[C@@H]2C[C@H](c3cccc(C(=O)O)c3)Oc3ccccc32)COc2cc3c(cc21)OC(F)(F)O3 [Example 22, 3-[(2R,4R)-4-{[(7R)-2,2-difluoro-7-methyl-6,7-dihydro-2H-furo[2,3-f][1,3]benzodioxole-7-carbonyl]amino}-3,4-dihydro-2H-1-benzopyran-2-yl]benzoic acid]"
420,104,"C[C@@]1(C(=O)N[C@@H]2C[C@H](c3ccc(C(=O)O)cc3)Oc3ccccc32)CCc2cc3c(cc21)OC(F)(F)O3 (single isomer, unassigned) [Example 58]"
250,103,"COc1ccc2c(c1)O[C@@H](c1ccc(C(=O)NCC3CNC(=O)C3)cn1)C[C@H]2NC(=O)[C@@]1(C)COc2cc3c(cc21)OC(F)(F)O3 (stereo partly drawn) [Example 231, 6-[(2R,4R)-4-{[(7R)-2,2-difluoro-7-methyl-6,7-dihydro-2H-furo[2,3-f][1,3]benzodioxole-7-carbonyl]amino}-7-methoxy-3,4-dihydro-2H-1-benzopyran-2-yl]-N-[(5-oxopyrrolidin-3-yl)methyl]pyridine-3-carboxamide]"
100,110,"COc1ccc2c(c1)O[C@@H](c1ccc(C(=O)N3C[C@H](O)[C@@H](O)C3)cn1)C[C@H]2NC(=O)[C@@]1(C)COc2cc3c(cc21)OC(F)(F)O3 [Example 249, (7R)—N-[(2R,4R)-2-{5-[(3S,4S)-3,4-dihydroxypyrrolidine-1-carbonyl]pyridin-2-yl}-7-methoxy-3,4-dihydro-2H-1-benzopyran-4-yl]-2,2-difluoro-7-methyl-6,7-dihydro-2H-furo[2,3-f][1,3]benzodioxole-7-carboxamide]"
410,121,"COC(=O)c1cccc([C@H]2C[C@@H](NC(=O)C3(C)COc4cc5c(cc43)OC(F)(F)O5)c3ccc(OC)cc3O2)c1 (stereo partly drawn) [Example 10, methyl 3-{(2R,4R)-4-[(2,2-difluoro-7-methyl-6,7-dihydro-2H-furo[2,3-f][1,3]benzodioxole-7-carbonyl)amino]-7-methoxy-3,4-dihydro-2H-1-benzopyran-2-yl}benzoate]"
304,135,"CCOC(=O)[C@H]1CC[C@H]([C@H]2C[C@@H](NC(=O)[C@@]3(C)COc4cc5c(cc43)OC(F)(F)O5)c3ccc(OC)cc3O2)CC1 [Example 153, ethyl trans-4-[(2R,4R)-4-{[(7R)-2,2-difluoro-7-methyl-6,7-dihydro-2H-furo[2,3-f][1,3]benzodioxole-7-carbonyl]amino}-7-methoxy-3,4-dihydro-2H-1-benzopyran-2-yl]cyclohexane-1-carboxylate]"
260,108,"COc1ccc2c(c1)O[C@H](c1ccc(OCc3ccccc3)nn1)C[C@H]2NC(=O)[C@@]1(C)COc2cc3c(cc21)OC(F)(F)O3 (single isomer, unassigned) [Example 272]"
330,138,"CC(C)(C)c1cc2cc(NC(=O)[C@@]3(C)COc4cc5c(cc43)OC(F)(F)O5)c(F)cc2n1C[C@@H](O)COCc1ccccc1 [Example 132, (7R)—N-{1-[(2R)-3-(benzyloxy)-2-hydroxypropyl]-2-tert-butyl-6-fluoro-1H-indol-5-yl}-2,2-difluoro-7-methyl-6,7-dihydro-2H-furo[2,3-f][1,3]benzodioxole-7-carboxamide]"
50,192,"C[C@]1(C(=O)N[C@@H]2C[C@H]([C@H]3CC[C@H](C(=O)NC(CO)c4ccccc4)CC3)Oc3cc(OC(F)(F)F)ccc32)COc2cc3c(cc21)OC(F)(F)O3 (stereo partly drawn) [Example 269, (7R)-2,2-difluoro-N-[(2R,4R)-2-{trans-4-[(2-hydroxy-1-phenylethyl)carbamoyl]cyclohexyl}-7-(trifluoromethoxy)-3,4-dihydro-2H-1-benzopyran-4-yl]-7-methyl-6,7-dihydro-2H-furo[2,3-f][1,3]benzodioxole-7-carboxamide]"
